In the oligonucleotide strings, read from the 5' end, every base follows the letter of its sugar. An asterisk marks phosphorothioate; unmarked linkages are phosphodiester. Other units and linkages are bracketed, terminal groups are in braces. A string of capitals states the bases alone. e = 2'-O-(2-methoxyethyl) (MOE); [5mC] = 5-methylcytosine; d = 2'-deoxy (DNA)
test system: mouse growth hormone receptor mRNA; assay: Inhibition of mouse growth hormone receptor mRNA levels in b.END cells, quantitative real-time PCR; format: cell-based; parameters: % INHIB: concentration or dose not given beside the values; conditions: dose-response studies
Description: The mouse brain endothelial cell line b.END was obtained from Dr. Werner Risau at the Max Plank Instititute (Bad Nauheim, Germany). b.END cells were routinely cultured in DMEM, high glucose (Gibco/Life Technologies, Gaithersburg, Md.) supplemented with 10% fetal calf serum (Gibco/Life Technologies, Gaithersburg, Md.). Cells were routinely passaged by trypsinization and dilution when they reached 90% confluence. Cells were seeded into 96-well plates (Falcon-Primaria #3872) at a density of 3000 cells/well for use in RT-PCR analysis.
When cells reached 65-75% confluency, they were treated with oligonucleotide. For cells grown in 96-well plates, wells were washed once with 100 μL OPTI-MEM™-1 reduced-serum medium (Invitrogen Corporation, Carlsbad, Calif.) and then treated with 130 μL of OPTI-MEM™-1 containing 3.75 μg/mL LIPOFECTIN™ (Invitrogen Corporation, Carlsbad, Calif.) and the desired concentration of oligonucleotide. Cells are treated and data are obtained in triplicate. After 4-7 hours of treatment at 37° C., the medium was replaced with fresh medium. Cells were harvested 16-24 hours after oligonucleotide treatment.
Total RNA was isolated using an RNEASY 96™ kit and buffers purchased from Qiagen Inc. (Valencia, Calif.) following the manufacturer's recommended procedures. Briefly, for cells grown on 96-well plates, growth medium was removed from the cells and each well was washed with 200 μL cold PBS. 150 μL Buffer RLT was added to each well and the plate vigorously agitated for 20 seconds. 150 μL of 70% ethanol was then added to each well and the contents mixed by pipetting three times up and down. The samples were then transferred to the RNEASY 96™ well plate attached to a QIAVAC™ manifold fitted with a waste collection tray and attached to a vacuum source. Vacuum was applied for 1 minute. 500 μL of Buffer RW1 was added to each well of the RNEASY 96™ plate and incubated for 15 minutes and the vacuum was again applied for 1 minute. An additional 500 μL of Buffer RW1 was added to each well of the RNEASY 96™ plate and the vacuum was applied for 2 minutes. 1 mL of Buffer RPE was then added to each well of the RNEASY 96™ plate and the vacuum applied for a period of 90 seconds. The Buffer RPE wash was then repeated and the vacuum was applied for an additional 3 minutes. The plate was then removed from the QIAVAC™ manifold and blotted dry on paper towels. The plate was then re-attached to the QIAVAC™ manifold fitted with a collection tube rack containing 1.2 mL collection tubes. RNA was then eluted by pipetting 140 μL of RNAse free water into each well, incubating 1 minute, and then applying the vacuum for 3 minutes.
Quantitation of growth hormone receptor mRNA levels was accomplished by real-time quantitative PCR using the ABI PRISM™ 7600, 7700, or 7900 Sequence Detection System (PE-Applied Biosystems, Foster City, Calif.) according to manufacturer's instructions. This is a closed-tube, non-gel-based, fluorescence detection system which allows high-throughput quantitation of polymerase chain reaction (PCR) products in real-time. As opposed to standard PCR in which amplification products are quantitated after the PCR is completed, products in real-time quantitative PCR are quantitated as they accumulate. This is accomplished by including in the PCR reaction an oligonucleotide probe that anneals specifically between the forward and reverse PCR primers, and contains two fluorescent dyes. A reporter dye (e.g., FAM or JOE, obtained from either PE-Applied Biosystems, Foster City, Calif., Operon Technologies Inc., Alameda, Calif. or Integrated DNA Technologies Inc., Coralville, Iowa) is attached to the 5′ end of the probe and a quencher dye (e.g., TAMRA, obtained from either PE-Applied Biosystems, Foster City, Calif., Operon Technologies Inc., Alameda, Calif. or Integrated DNA Technologies Inc., Coralville, Iowa) is attached to the 3′ end of the probe. […]

Substance	IC50 [nM]
227507 (antisense eG*eT*e[5mC]*e[5mC]*eT*dT*dG*d[5mC]*dT*d[5mC]*d[5mC]*dA*dG*dG*dT*eT*eA*eG*e[5mC]*eA) [compound 227507]	~12.5
227509 (antisense eG*e[5mC]*eA*eG*eT*dT*d[5mC]*dT*dA*dT*d[5mC]*dA*dG*dA*dA*e[5mC]*eT*eT*eT*eG) [compound 227509]	~12.5

same assay, conditions: mouse growth hormone receptor mRNA, b.END cells, averages from three experiments

Substance	% INHIB [%]
227458 (antisense eG*eT*eA*e[5mC]*eT*dG*dA*dA*dT*dT*dT*d[5mC]*dA*dT*dA*e[5mC]*eT*e[5mC]*e[5mC]*eA) [compound 227458]	75
227459 (antisense e[5mC]*eT*eG*eA*eA*d[5mC]*dT*d[5mC]*dG*d[5mC]*dT*dG*dT*dA*d[5mC]*eT*eT*eT*eT*e[5mC]) [compound 227459]	60
227460 (antisense eA*eA*e[5mC]*eT*eG*dG*dA*dT*dA*dT*d[5mC]*dT*dT*d[5mC]*dT*eT*e[5mC]*eA*e[5mC]*eA) [compound 227460]	43
227461 (antisense eT*eG*e[5mC]*eT*eA*d[5mC]*dT*d[5mC]*d[5mC]*dA*dA*dA*dT*dA*dT*eT*e[5mC]*e[5mC]*eA*eA) [compound 227461]	75
227462 (antisense eG*e[5mC]*eT*eT*eT*dG*dA*dA*dA*dA*dT*dA*dT*dA*dA*e[5mC]*eT*eA*e[5mC]*eA) [compound 227462]	31
227463 (antisense eA*eT*e[5mC]*eA*eG*d[5mC]*dA*dT*d[5mC]*dT*dT*dA*dA*dT*d[5mC]*e[5mC]*eT*eT*eT*eG) [compound 227463]	39
227465 (antisense eT*eG*eA*eG*eA*dA*dG*dA*dT*d[5mC]*dT*dG*dG*dA*dT*e[5mC]*eA*eA*eT*e[5mC]) [compound 227465]	51
227466 (antisense eT*eT*eG*eT*eA*dG*dT*dT*dA*dT*d[5mC]*dA*dT*dG*dA*eA*eT*eG*e[5mC]*e[5mC]) [compound 227466]	50
227467 (antisense e[5mC]*eA*eT*e[5mC]*eA*dT*dT*dG*dT*dA*dG*dA*dA*dG*dT*e[5mC]*eG*eG*eG*eT) [compound 227467]	33
227470 (antisense e[5mC]*eT*e[5mC]*e[5mC]*eA*dA*dG*dG*dA*dT*dA*d[5mC]*d[5mC]*dA*dG*e[5mC]*eT*eG*eA*eT) [compound 227470]	82
227471 (antisense eA*eG*eG*e[5mC]*eA*d[5mC]*dA*dA*dG*dA*dG*dA*dT*d[5mC]*dA*eG*e[5mC]*eT*eT*e[5mC]) [compound 227471]	52
227472 (antisense eA*eG*eA*eG*e[5mC]*d[5mC]*dA*dA*dG*dG*dG*dA*dA*dG*d[5mC]*eA*eT*e[5mC]*eA*eT) [compound 227472]	42
227473 (antisense eA*eA*eG*eT*e[5mC]*dA*dA*dT*dG*dT*dT*dT*dG*d[5mC]*d[5mC]*eA*eG*eT*eG*eA) [compound 227473]	71
227474 (antisense eT*eG*eT*e[5mC]*eG*d[5mC]*dT*dT*dA*d[5mC]*dT*dT*dG*dG*dG*e[5mC]*eA*eT*eA*eA) [compound 227474]	68
227476 (antisense eG*eT*eA*eA*eT*dT*dT*dT*d[5mC]*dT*dT*dG*dG*d[5mC]*dA*eG*eG*eG*e[5mC]*eG) [compound 227476]	41
227477 (antisense e[5mC]*eA*e[5mC]*eT*eG*dT*dT*d[5mC]*dA*dT*dG*d[5mC]*dT*dG*dT*eA*eA*eT*eT*eT) [compound 227477]	61
227478 (antisense eT*eT*eT*eT*eT*dG*dG*d[5mC]*dA*dT*d[5mC]*dT*dG*dA*d[5mC]*eT*e[5mC]*eA*e[5mC]*eA) [compound 227478]	68
227479 (antisense eA*eT*eG*eT*e[5mC]*d[5mC]*dT*d[5mC]*dT*dT*dG*dG*dT*dT*dA*eA*eA*eG*e[5mC]*eT) [compound 227479]	59
227485 (antisense e[5mC]*eG*eT*eG*eG*dT*dG*dT*dA*dG*dT*d[5mC]*dT*dG*dG*eG*eA*e[5mC]*eA*eG) [compound 227485]	45

Substance	% INHIB [%]
227486 (antisense e[5mC]*eG*eG*eT*eG*dT*dG*dA*dA*d[5mC]*d[5mC]*dG*dT*dG*dG*eT*eG*eT*eA*eG) [compound 227486]	39
227487 (antisense eT*e[5mC]*eA*eG*eG*d[5mC]*dA*dA*dA*dG*dG*d[5mC]*dA*dA*dA*eG*e[5mC]*eA*eG*eT) [compound 227487]	44
227491 (antisense eT*eA*eG*eG*eA*dA*dA*dG*dG*d[5mC]*dT*dA*d[5mC]*dT*dG*e[5mC]*eA*eT*eG*eA) [compound 227491]	65
227492 (antisense eT*eA*eA*eA*eA*d[5mC]*dA*dT*dA*dG*dT*dT*dT*dT*dG*eG*eT*eT*eT*eA) [compound 227492]	7
227493 (antisense eT*e[5mC]*e[5mC]*e[5mC]*eA*dA*d[5mC]*dA*d[5mC]*dA*dG*dA*dT*dT*dT*eA*eA*eA*eA*e[5mC]) [compound 227493]	51
227494 (antisense e[5mC]*eA*eA*eA*eA*dG*d[5mC]*d[5mC]*dA*d[5mC]*d[5mC]*dT*dG*dA*dT*eT*eG*eT*eT*eT) [compound 227494]	56
227495 (antisense eT*e[5mC]*e[5mC]*eT*eG*dA*dA*d[5mC]*dT*dG*d[5mC]*dA*dA*dA*dA*eG*e[5mC]*e[5mC]*eA*e[5mC]) [compound 227495]	47
227496 (antisense eG*e[5mC]*eA*eT*eT*d[5mC]*dA*dA*dT*dT*dT*d[5mC]*d[5mC]*dT*dG*eA*eA*e[5mC]*eT*eG) [compound 227496]	51
227497 (antisense eT*eA*eA*eA*eT*dG*dT*dT*dT*dT*dG*d[5mC]*dA*dT*dA*eT*e[5mC]*e[5mC]*eA*eA) [compound 227497]	77
227498 (antisense eT*eT*eG*eT*eA*dA*dA*dA*dA*dT*d[5mC]*dT*dA*dA*d[5mC]*eT*eT*eG*eT*eT) [compound 227498]	49
227503 (antisense eT*eA*e[5mC]*e[5mC]*eT*dG*dA*dG*dA*d[5mC]*d[5mC]*d[5mC]*d[5mC]*dA*dG*eT*eT*e[5mC]*eA*eT) [compound 227503]	24
227504 (antisense eT*eA*e[5mC]*e[5mC]*eT*dG*dA*dG*dA*d[5mC]*d[5mC]*d[5mC]*d[5mC]*dG*d[5mC]*eG*e[5mC]*eA*eG*e[5mC]) [compound 227504]	34
227505 (antisense eT*eA*e[5mC]*e[5mC]*eT*dG*dA*dG*dA*d[5mC]*d[5mC]*d[5mC]*dA*d[5mC]*dA*eA*eG*e[5mC]*eG*eG) [compound 227505]	39
227506 (antisense e[5mC]*e[5mC]*eT*e[5mC]*e[5mC]*dA*dG*dT*dA*d[5mC]*d[5mC]*dT*d[5mC]*dG*dG*eA*eG*eT*eT*eT) [compound 227506]	69
227507 (antisense eG*eT*e[5mC]*e[5mC]*eT*dT*dG*d[5mC]*dT*d[5mC]*d[5mC]*dA*dG*dG*dT*eT*eA*eG*e[5mC]*eA) [compound 227507]	89
227508 (antisense eT*eT*e[5mC]*e[5mC]*eA*d[5mC]*dT*d[5mC]*dA*d[5mC]*d[5mC]*d[5mC]*d[5mC]*dA*dG*eT*eT*e[5mC]*eA*eT) [compound 227508]	51
227509 (antisense eG*e[5mC]*eA*eG*eT*dT*d[5mC]*dT*dA*dT*d[5mC]*dA*dG*dA*dA*e[5mC]*eT*eT*eT*eG) [compound 227509]	82
227510 (antisense e[5mC]*eT*e[5mC]*e[5mC]*eA*dG*dA*d[5mC]*dG*dT*dG*dA*d[5mC]*d[5mC]*d[5mC]*eG*eA*e[5mC]*eT*e[5mC]) [compound 227510]	64

— patent US8637484B2, “Modulation of growth hormone receptor expression and insulin-like growth factor expression” (Antisense Therapeutic Limited, priority 2003, dated 2014)
